Source: patent publication US20060035291A1, “Method of detecting cellular immunity and application thereof to drugs” (priority 2001, published 2006)

System: HLA-A2 restricted antigen peptide-specific T cells (CTL precursors) in PBMCs
Assay: IFN-γ production (ELISA) by peptide-stimulated HLA-A2 positive PBMCs in response to peptide-sensitized T2 cells
Format: cell-based, human
Design: production level of IFN-γ: unit not given here
Conditions: for production level of IFN-γ: average of 4, HIV peptide background subtracted; for IFN-γ production 1st well / IFN-γ production 2nd well / IFN-γ production 3rd well / IFN-γ production 4th well: before vaccination
[1] = HD6, HLA-A2 positive healthy donor
[2] = HD7, HLA-A2 positive healthy donor
[3] = HD8, HLA-A2 positive healthy donor
[4] = HD9, HLA-A2 positive healthy donor
[5] = HD10, HLA-A2 positive healthy donor
[6] = HLA-A2 positive cervical cancer patient, response to HIV-T2 cells subtracted
[7] = HLA-A2 positive prostate cancer patient
[8] = Pt. 11, HLA-A2 positive pancreatic cancer, ELISA sensitivity limit 10 pg/ml
[9] = Pt. 12, HLA-A2 positive pancreatic cancer, ELISA sensitivity limit 10 pg/ml
[10] = Pt. 13, HLA-A2 positive pancreatic cancer, ELISA sensitivity limit 10 pg/ml
[11] = Pt. 14, HLA-A2 positive pancreatic cancer, ELISA sensitivity limit 10 pg/ml
[12] = Pt. 15, HLA-A2 positive pancreatic cancer, ELISA sensitivity limit 10 pg/ml

Sequence	production level of IFN-γ [1]	production level of IFN-γ [2]	production level of IFN-γ [3]	production level of IFN-γ [4]	production level of IFN-γ [5]	IFN-γ production 1st well [6] [pg/well]	IFN-γ production 2nd well [6] [pg/well]	IFN-γ production 3rd well [6] [pg/well]	IFN-γ production 4th well [6] [pg/well]	IFN-γ production 1st well [7] [pg/well]	IFN-γ production 2nd well [7] [pg/well]	IFN-γ production 3rd well [7] [pg/well]	IFN-γ production 4th well [7] [pg/well]	production level of IFN-γ [8]	production level of IFN-γ [9]	production level of IFN-γ [10]	production level of IFN-γ [11]	production level of IFN-γ [12]
LLQAEAPRL [SART3302]	0	0	51	70	0	<0	<0	8	<0	<0	<0	<0	<0	32	0	226	8	0
RLAEYQAYI [SART3309]	0	127	30	25	0	<0	<0	9	28	<0	<0	<0	<0	116	0	19	3	27
KLVERLGAA [lck246]	0	21	29	26	0	19	<0	<0	<0	<0	<0	<0	<0	74	16	24	0	0
ILGELREKV [WHSC2141]	0	0	0	12	260	10	<0	<0	<0	6	14	<0	9	0	47	0	659	38
LIADFLSGL [UBE2V85]	0	0	0	0	1226	7	34	<0	<0	0	<0	7	<0	0	1	13	7	43
RLQEWCSVI [UBE2V43]	980	31	0	3	56	13	11	<0	<0	<0	<0	<0	<0	0	0	0	7	0
DLLSHAFFA [ppMAPkkk432]	0	0	0	0	73	137	12	<0	<0	43	64	<0	5	42	57	58	0	0
DVWSFGILL [lck422]	0	11	23	60	26	<0	<0	<0	8	1	<0	<0	<0	20	81	10	71	0
NVLHFFNAPL [HNRPL501]	0	0	0	0	0	24	<0	<0	18	<0	7	<0	<0	0	0	14	0	13
